# Assay results taken from patent publication US20130129595A1 (SOLVAY SA, priority 2010, published 2013).
# Experiment: Solubility of LiPO2F2, LiF and LiPF6 in organic solvents
Solubility (in words) (in acetone),Solubility (in words) (in dimethoxyethane),Solubility (in words) (in dimethyl carbonate and propylene carbonate),SMILES,Solubility (in words) (in aprotic organic solvents)
very low solubility,at most in negligible amounts,essentially insoluble,[F-].[Li+] [LiF],only very sparingly soluble
–,–,–,F[P-](F)(F)(F)(F)F.[Li+] [LiPF6],comparably good solubility
